“And” between values parts separate entries of the source, which are not always exact repeats. Identical values can stand only once.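 Each compound was tested at five concentrations against cells in 96-well plates for 48 hours. GI50 marks 50% less growth. TGI: total growth inhibition.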 Where a SMILES comes first, the peptide text is derived from it. [ ]: non-standard residue; d: D form. The star is where a group is joined. ξ: configuration not given here. ξF = NC(Cc1ccccc1)C(=O)O; Cbz = O=C(OCc1ccccc1)*
Assays:
Assay in all cases: growth of human tumour cells (NCI), 48 h
HCC-2998 colon = system: HCC-2998 colon
MCF7 breast = system: MCF7 breast
A549 NSCLC = system: A549 NSCLC
HOP-92 NSCLC = system: HOP-92 NSCLC
SNB-19 CNS = system: SNB-19 CNS
COLO 205 colon = system: COLO 205 colon
UO-31 renal = system: UO-31 renal
SF-295 CNS = system: SF-295 CNS
LOX IMVI melanoma = system: LOX IMVI melanoma
SK-MEL-28 melanoma = system: SK-MEL-28 melanoma
KM12 colon = system: KM12 colon

Row | SMILES | TGI (HCC-2998 colon) | TGI (MCF7 breast) | TGI (A549 NSCLC) | GI50 (HOP-92 NSCLC) | TGI (HOP-92 NSCLC) | TGI (SNB-19 CNS) | TGI (COLO 205 colon) | TGI (UO-31 renal) | GI50 (SF-295 CNS) | GI50 (LOX IMVI melanoma) | TGI (SK-MEL-28 melanoma) | TGI (KM12 colon) | TGI (SF-295 CNS) | TGI (LOX IMVI melanoma)
1 | COc1cc([C@@H]2c3cc4c(cc3[C@@H](Nc3ccc(NC(=O)c5cc([N+](=O)[O-])cn5C)cc3)[C@H]3COC(=O)[C@H]23)OCO4)cc(OC)c1O | 0.8 µM and 0.872 µM | > 31.6 µM | 1.31 µM and 0.309 µM | 54.9 nM | 39.9 µM and 19.7 µM | > 44.5 µM | 2.61 µM and 1.3 µM | 0.841 µM and 0.825 µM | 51.3 nM and 79.3 nM | 111 nM and 26.8 nM | > 100 µM |  |  | 
2 | CC(=O)c1ccc(Nc2c3c(nc4ccccc24)CCCC3)cc1 | > 100 µM | > 100 µM | > 95.5 µM |  | > 88.8 µM | 99.5 µM | > 51.1 µM | > 67.1 µM |  |  | > 100 µM | > 36 µM | > 43.2 µM | > 41.4 µM
3 | S=C1Cc2c(-c3ccccc3)cc(-c3cccc(Cl)c3)nc2-c2ccccc2N1 | 18.7 µM | > 58.1 µM | 22.5 µM |  | 5.12 µM | 7.97 µM | > 100 µM | 16.9 µM |  |  | 51.8 µM | > 100 µM | 17.2 µM | 13.7 µM
4 | COc1ccccc1C1c2cc3c(cc2OC2(OC)COC(=O)C12)OCO3 (centres undefined) | > 63.8 µM | > 65.7 µM | > 100 µM |  | > 93.8 µM | > 77.6 µM | 67.3 µM | 65.6 µM |  |  | 44.2 µM | 45.5 µM | 63.9 µM | 67.1 µM
5 | CN=c1sc2c(n1C)C(=O)c1ccccc1C2=O | 20.4 µM | 3.8 µM | 3.94 µM |  | 29.9 µM | 10.1 µM | 11.9 µM | 19.6 µM |  |  | 3.61 µM | 13.5 µM | 3.77 µM | 10.4 µM
6 | CC(C)C(Cl)CCC(C)(Cl)C(=O)CBr (centres undefined) | 33.1 µM | 4.53 µM | 53.4 µM |  | 23.8 µM | > 67.3 µM | 12 µM | 15 µM |  |  | 16.3 µM | 29.8 µM | 41.2 µM | 2.36 µM
7 | O=c1c(-c2ccccc2)nnc2n(Cc3ccccc3)c3ccccc3n12 | > 100 µM | > 100 µM | > 100 µM |  | > 100 µM | > 100 µM | > 100 µM | > 100 µM |  |  | > 100 µM | > 100 µM | > 100 µM | > 100 µM
8 | CCOC(=O)c1cn(CC)c(=O)n2c1nc1ccccc12 | > 100 µM | > 100 µM | > 100 µM |  | > 100 µM | > 100 µM | > 100 µM | 10.2 µM |  |  | > 100 µM | > 100 µM | > 100 µM | 84.1 µM
9 | COC(=O)/C=C/c1ccc(OP(=O)(O)O)c(OC)c1 | > 100 µM | > 100 µM | > 100 µM |  | > 100 µM | > 100 µM | > 100 µM | > 100 µM |  |  | > 100 µM | > 100 µM | > 100 µM | > 100 µM
10 | N#Cc1ccccc1OCCOc1ccccc1C#N | > 100 µM | > 100 µM | > 100 µM |  | > 100 µM | > 100 µM | > 100 µM | > 100 µM |  |  | > 100 µM | > 100 µM | > 100 µM | > 100 µM
11 | CCOC(=O)CNC(=O)C(Cc1ccccc1)NC(=O)OCc1ccccc1 (centres undefined) (Cbz-[ξF]-Gly-OEt) | > 100 µM | > 100 µM | > 100 µM |  | > 100 µM | > 100 µM | > 100 µM | > 100 µM |  |  |  | > 100 µM | > 100 µM | > 100 µM
12 | C=C1CC[C@@H](CCC2CCC3(OC2)O[C@]2(O)CC[C@@]3(C)OC2(C)C)C(C)(C)[C@H]1C/C=C1\CCOC1=O (some centres undefined) | > 53.3 µM | 28.9 µM | > 100 µM |  | 66.4 µM | > 100 µM | 35.3 µM | > 100 µM |  |  | > 100 µM | > 60.3 µM |  | 20 µM
13 | O=C(O)CCCc1ccc2c(c1)CC1(C2)Cc2cc3c(cc2C1)CCCC3 | 41.4 µM | 94.2 µM | 67 µM |  | 44.2 µM |  | 38.2 µM | 34.2 µM |  |  |  | 33.6 µM | 56.9 µM | 32.7 µM
14 | COC1(OC)CCc2c(sc3ncnc(Nc4cccc(Br)c4)c23)C1 | > 100 µM | > 100 µM | > 100 µM |  | > 100 µM | > 100 µM | > 100 µM | > 100 µM |  |  |  | > 100 µM | > 100 µM | > 100 µM

Source: PubChem BioAssay (NCI)
